Measured values: patent publication US9585871B2, “Method for treating and curing leishmaniosis using fexinidazole” (Merial Limited, priority 2013, dated 2017)

Test system: L. infantum
Test: Clinical study in dogs infected with L. infantum: Overall Biological Score
Format: in vivo
Parameters: key: additive score of severity of hematology/chemistry changes
Settings: samples collected on D16 (printed in Day 28 column), Group 1 Block 8 dog removed for toxicity; Glucantime 100 mg/kg dNMA SC once daily

Substance: meglumine antimoniate [Glucantime]
- Overall Biological Score: 5^2
